{"source": "paper PMC9429723", "about": "“Hypertoxic self-assembled peptide with dual functions of glutathione depletion and biosynthesis inhibition for selective tumor ferroptosis and pyroptosis” (Journal of Nanobiotechnology, 2022)", "key": {"B16 cells [1]": {"system": "B16 cells", "format": "cell-based, mouse", "protocol": "(§1) All cells (8 × 10^3 per well) were plated in 96-well plates at 37 °C and 5% CO2 overnight. Then cells were treated with gradient concentrations of NSBSO, NCSBSO, NS or BSO for another 12 h or 24 h. Afterward, cck-8 reagent was added to each well. And the 96-well plates were incubated for another 3 h at 37 °C and followed by determining the absorbance at 450 nm utilizing a microplate reader (Thermo, USA). IC50 values of NSBSO against different cells were conducted using GraphPad Prism 8 software. Additionally, in order to determine the cell cytotoxicity of NSBSO after treatment with various inhibitors or GSH, the cells were pretreated with inhibitors for 24 h or GSH (0, 1, 2.5 and 5 mM) for 12 h before NSBSO treatment. The human breast adenocarcinoma cell line (MCF-7 cells), mouse melanoma cell line (B16 cells), human lung cancer line (A549 cells), mouse breast cancer cell line (4T1 cells), murine colon carcinoma cell line (CT26 cells) and mouse embryonic fibroblast cell line (3T3 cells) were used for research. MCF-7 and 3T3 cells were cultured in DMEM culture medium supplemented with 10% FBS and 1% penicillin/streptomycin (pen/strep) at 37 °C in 5% CO2. B16, A549, 4T1 and CT26 cells were cultured in RPMI Medium 1640 basic supplemented with 10% FBS and 1% penicillin/streptomycin (pen/strep) at 37 °C in 5% CO2."}, "4T1 cells [2]": {"system": "4T1 cells", "format": "cell-based, mouse", "protocol": "as §1"}, "GPX4": {"system": "GPX4", "test": "Intracellular GPX4 activity assay in 4T1 cell lysates", "format": "cell-based, mouse", "details": "10 μM, 6 h, t-BuOOH as substrate", "protocol": "4T1 cells were all seeded in the density of 1 × 10^6 cells per dish in 6-cm dishes for 24 h. Upon completion of incubation with different treatments for 6 h, the cell lysates were collected and quantified by a detergent compatible bradford protein assay kit. The intracellular GPX activity was measured through a cellular glutathione peroxidase assay kit on the basis of the manufacturer’s instructions."}, "4T1 cells [3]": {"system": "4T1 cells", "test": "Rescue of NSBSO-induced cell death by inhibitors, 4T1 cells", "format": "cell-based, mouse", "protocol": "(§2) All cells (8 × 10^3 per well) were plated in 96-well plates at 37 °C and 5% CO2 overnight. Then cells were treated with gradient concentrations of NSBSO, NCSBSO, NS or BSO for another 12 h or 24 h. Afterward, cck-8 reagent was added to each well. And the 96-well plates were incubated for another 3 h at 37 °C and followed by determining the absorbance at 450 nm utilizing a microplate reader (Thermo, USA). IC50 values of NSBSO against different cells were conducted using GraphPad Prism 8 software. Additionally, in order to determine the cell cytotoxicity of NSBSO after treatment with various inhibitors or GSH, the cells were pretreated with inhibitors for 24 h or GSH (0, 1, 2.5 and 5 mM) for 12 h before NSBSO treatment."}, "B16 cells [4]": {"system": "B16 cells", "test": "Rescue of NSBSO-induced cell death by inhibitors, B16 cells", "format": "cell-based, mouse", "details": "inhibitor pretreated 24 h, NSBSO 12 h, cck-8", "protocol": "as §2"}, "in vitro": {"test": "in vitro", "details": "serum"}, "3T3 cells": {"system": "3T3 cells", "format": "cell-based, mouse", "protocol": "as §1"}, "CT26 cells": {"system": "CT26 cells", "format": "cell-based, murine", "protocol": "as §1"}, "MCF-7 cells": {"system": "MCF-7 cells", "format": "cell-based, human", "protocol": "as §1"}, "A549 cells": {"system": "A549 cells", "format": "cell-based, human", "protocol": "as §1"}}, "note": "Where two headings read alike, the source gives them in different places. *: point of attachment. Cbz = O=C(OCc1ccccc1)*; CH2F = FC*", "data": [{"compound": "CCCCS(=N)(=O)CC[C@H](N)C(=O)O", "note": "(stereo partly drawn) [BSO, L-buthionine-sulfoximine, reference compound]", "values": [{"measurement": "cytotoxicity", "setting": "B16 cells [1]", "value": "did not show obvious cytotoxicity"}, {"measurement": "cytotoxicity", "setting": "4T1 cells [2]", "value": "did not show obvious cytotoxicity"}, {"measurement": "activity of GPX4 (rate of NADPH oxidation, 340 nm)", "setting": "GPX4", "value": "suppressed to varying degrees"}]}, {"compound": "CCOC(=O)c1ccc(NC2CCCCC2)c(N)c1", "note": "[Fer-1, ferrostatin-1]", "values": [{"measurement": "rescue of NSBSO-induced cell death", "setting": "4T1 cells [3]; Fer-1 0.5 μM pretreated 24 h before NSBSO treatment, cck-8, n = 4", "value": 42.13, "unit": "%"}, {"measurement": "rescue of NSBSO-induced cell death", "setting": "B16 cells [4]", "value": "did not markedly alleviate"}]}, {"compound": "CCCCS(=N)(=O)CC[C@H](NC(=O)[C@H](CC(=O)O)NC(=O)[C@@H](NC(=O)[C@H](CCC(=O)O)NC(=O)[C@H](CC(=O)O)NC(=O)CCC(=O)NCCCCCCNC(=O)[C@H](Cc1ccc(O)cc1)NC(=O)[C@@H](Cc1ccccc1)NC(=O)[C@@H](Cc1ccccc1)NC(=O)Cc1ccc2ccccc2c1)C(C)C)C(=O)O", "note": "(stereo partly drawn) [NCBSO, Nap-^DF^DFY-HDA-DEVD-BSO]", "values": [{"measurement": "cytotoxicity", "setting": "B16 cells [1]", "value": "did not show obvious cytotoxicity"}, {"measurement": "cytotoxicity", "setting": "4T1 cells [2]", "value": "did not show obvious cytotoxicity"}]}, {"compound": "CC(C)[C@H](NC(=O)[C@H](CCC(=O)O)NC(=O)[C@H](CC(=O)O)NC(=O)CCC(=O)NCCSSCCNC(=O)[C@H](Cc1ccc(O)cc1)NC(=O)[C@@H](Cc1ccccc1)NC(=O)[C@@H](Cc1ccccc1)NC(=O)Cc1ccc2ccccc2c1)C(=O)N[C@@H](CC(=O)O)C(=O)O", "note": "[NS, Nap-^DF^DFY-CS-DEVD]", "values": [{"measurement": "cytotoxicity", "setting": "B16 cells [1]", "value": "concentration-dependent cytotoxicity"}, {"measurement": "cytotoxicity", "setting": "4T1 cells [2]", "value": "concentration-dependent cytotoxicity"}]}, {"compound": "CCCCS(=N)(=O)CC[C@H](NC(=O)[C@H](CC(=O)O)NC(=O)[C@@H](NC(=O)[C@H](CCC(=O)O)NC(=O)[C@H](CC(=O)O)NC(=O)CCC(=O)NCCSSCCNC(=O)[C@H](Cc1ccc(O)cc1)NC(=O)[C@@H](Cc1ccccc1)NC(=O)[C@@H](Cc1ccccc1)NC(=O)Cc1ccc2ccccc2c1)C(C)C)C(=O)O", "note": "(stereo partly drawn) [NSBSO, Nap-^DF^DFY-CS-DEVD-BSO]", "values": [{"measurement": "remaining at 2 h, 400 μM", "setting": "in vitro", "value": "> 80", "unit": "%"}, {"measurement": "remaining at 24 h, 400 μM", "setting": "in vitro", "value": "> 50", "unit": "%"}, {"measurement": "cytotoxicity", "setting": "B16 cells [1]", "value": "concentration-dependent cytotoxicity"}, {"measurement": "IC50", "setting": "B16 cells [1]; 12 h", "value": 1.98, "unit": "µM"}, {"measurement": "IC50", "setting": "B16 cells [1]; 24 h", "value": 0.844, "unit": "µM"}, {"measurement": "cytotoxicity", "setting": "4T1 cells [2]", "value": "concentration-dependent cytotoxicity"}, {"measurement": "IC50", "setting": "4T1 cells [2]; 12 h", "value": 10.9, "unit": "µM"}, {"measurement": "IC50", "setting": "4T1 cells [2]; 24 h", "value": 4.74, "unit": "µM"}, {"measurement": "IC50", "setting": "3T3 cells; 12 h", "value": "> 100", "unit": "µM"}, {"measurement": "IC50", "setting": "3T3 cells; 24 h", "value": "> 100", "unit": "µM"}, {"measurement": "IC50", "setting": "CT26 cells; 12 h", "value": "> 100", "unit": "µM"}, {"measurement": "IC50", "setting": "CT26 cells; 24 h", "value": "> 100", "unit": "µM"}, {"measurement": "IC50", "setting": "MCF-7 cells; 12 h", "value": 4.43, "unit": "µM"}, {"measurement": "IC50", "setting": "MCF-7 cells; 24 h", "value": 1.07, "unit": "µM"}, {"measurement": "IC50", "setting": "A549 cells; 12 h", "value": 7.56, "unit": "µM"}, {"measurement": "IC50", "setting": "A549 cells; 24 h", "value": 1.22, "unit": "µM"}]}, {"compound": "Ac-DEVD-CHO", "values": [{"measurement": "rescue of NSBSO-induced cell death", "setting": "B16 cells [4]", "value": "better rescued"}]}, {"compound": "Cbz-Val-Ala-Asp-CH2F", "values": [{"measurement": "rescue of NSBSO-induced cell death", "setting": "4T1 cells [3]; NSBSO 5 μM, 24 h, cck-8", "value": "scarcely rescued"}]}]}
